What was measured:
[1] = test system: HeLa cells; assay: Flow cytometry cell cycle analysis by PI staining; format: cell-based, human; conditions: 48 h, complexes at IC50, cis-platin 5 μM
Experimental: A flow cytometer was also used to do the apoptotic assessment. HeLa cells (5 × 10^5) were seeded onto 6-well plates using Dulbecco's Modified Eagle Medium paper (DMEM) with 10% FBS. The plates were incubated overnight at 37 °C with 95% air and 5% CO2. […] Following trypsinization, the cells were collected, cleaned with PBS, and fixed for 24 hours at 2–6 °C in ice-cold 70% ethanol. Centrifugation was used to remove the ethanol, and cold PBS was used twice to wash the cell pellets. Later the cells were stained with propidium iodide (PI, 1 mg mL^−1) and incubated for 30 min. Flow cytometric analysis was performed using a FACS scanner and the Becton Dickinson cell search program at 595 nm and the distribution of cells in various cell cycle phases was determined.[69,70]
Through cell cycle analysis, the mechanism of cancer cell death caused by the complexes was evaluated. Anticancer drugs promote growth-inhibitory action in cancer cells by a variety of mechanisms, one of which is dysfunction in the regulation of the cell cycle.[32] For example, cis-platin inhibits DNA transcription in cells by stopping the cell cycle in the S and G2/M phases. PI staining and flow cytometry were used to examine the ability of the complexes to modify the cell cycle (Fig. 19).

[2] = test system: CT-DNA; conditions: constant used in eqn (6); no reference given; cited from earlier work

Row | SMILES | G0/G1 phase [1] | M Phase [1] | S Phase [1] | Sub-G0 phase [1] | KEtBr, DNA binding constant of EB [2]
1 | N.N.[Cl][Pt][Cl] [Cis-platin, cis-platin, reference compound] | 27.12% | 17.52% | 10.11% | 45.25% | –
2 | CC[n+]1c(-c2ccccc2)c2cc(N)ccc2c2ccc(N)cc21 [EB, ethidium bromide] | – | – | – | – | 1e+07 M⁻¹
